# Data as given in patent US20260015311A1, “AMINO LIPID COMPOUND, PREPARATION METHOD THEREFOR, AND USE THEREOF” (SHENZHEN SHENXIN BIOTECHNOLOGY CO., LTD., priority 2022, published 2026).
# Where two headings read alike, the source gives them in different places.
# What was measured:
# [1] = system: liver; test: Targeting assay, fluorescence in liver after intramuscular injection; assay type: in vivo, mice; details: 15 μg mRNA per animal, 6 h after injection, dissected liver
# Description: The lipids were mixed with DSPC, CHO-HP, M-DMG2000 (i.e. PEG2000-DMG) in a molar ratio of 50:10:38.5:1.5 and dissolved in absolute ethanol. mRNA was dissolved in a sodium acetate solution (0.2M, pH=5.0). The samples of various prescriptions were prepared at a water phase:alcohol phase=9 ml/min: 3 ml/min by using a microfluidic equipment (MPE-L2) and a chip (SN.000035). The two phases were mixed by injecting them into the microfluidic chip according to the interface requirements, and then the drug solution was loaded into a 100KD dialysis bags, immersed in a beaker containing 1 L dialysis solution and wrapped with aluminum foil, and dialyzed at 100 rpm for 1 h at room temperature, and then the dialysis solution was replaced and the dialysis continued for 1 h.
# Formulation of dialysis solution: 1×PBS+8% sucrose solution: 2 packets of 1×PBS powder were taken into a beaker, dissolved with 2 L DEPC water, added with 160 g of sucrose additionally, and mixed to obtain the 1×PBS+8% sucrose solution.
# The mass ratio of mRNA:Lipids in the obtained lipid nanoparticles were about 1:10.
# Fluorescent protein-encoding mRNA-LNP preparations containing Compound (I-6-II), MC3 or SM102, respectively were prepared by using the formulation method of mRNA lipid nanoparticle (LNP) preparations as described above, selecting a fluorescent protein-encoding mRNA as the mRNA and the compound (I-6-II), MC3 or SM102, respectively as the lipid.
# Each preparation to be tested was administered to mice by intramuscular injection, with each animal receiving 15 μg mRNA preparation sample. 6 h after sample injection, the mice were anesthetized by isoflurane inhalation, and injected intraperitoneally with 200 μL of D-Luciferin (concentration 10 mg/ml) luciferase development substrate. […] After development of living imaging of the intramuscularly injected animals, they were immediately dissected, followed by observation of the fluorescence in the liver immediately after the dissection.
# [2] = Toxicokinetic, plasma concentration of compound I-6-II after empty liposome preparation; assay type: in vivo, cynomolgus monkeys; details: for half-life / AUC(0-t) / Cmax / Tmax: cynomolgus monkey, plasma, intramuscular
# Description: 1.9078 g of Compound I-6-II, 0.3985 g of DSPC, 0.7575 g of CHO-HP and 0.1972 g of PEG-DMG (average molecular weight of 2000) were weighed in the molar ratio of 49.5:10:39:1.5, dissolved in absolute ethanol and diluted to 237.5 mL to obtain an alcohol phase. The alcohol phase was mixed and encapsulated by using a microfluidic device (MPE-L^2), with an acetic acid-sodium acetate buffer (0.2 mol/L, pH=5) as the aqueous phase, and a volume ratio of aqueous phase:alcohol phase of 3:1. […]
# The animal experiment was set up with a total of 5 groups (5 animals/gender/group), and the groups and the dosages thereof were as follows: negative control group (0 μg compound I-6-II/animal), empty liposome low-dosage group (300 μg compound I-6-II/animal) and empty liposome high-dosage group (1200 μg compound I-6-II/animal). The animals in each group were administered intramuscularly once every 2 weeks for a total of 3 times, i.e., administered on D1, D15 and D29.
# Blood samples were collected from animals before and 4 h after the first (D1) and the last (D29) administration in the negative control group; and Blood samples were collected from animals before and 15 min, 1 h, 2 h, 4 h, 8 h, 24 h, 32 h and 48 h after the first (D1) and the last (D29) administration in the empty liposome group. The plasma concentration of compound I-6-II in cynomolgus monkeys was detected to investigate the exposure of compound I-6-II in cynomolgus monkeys after administration in each group of animals.
# The main TK parameters of compound I-6-II in animals of the empty liposome low- and high-dosage groups after the first administration (D1) and the last administration (D29) are as shown in Table 7 below.
# [3] = system: SD rats; details: Covid-19 S protein mRNA-LNP, 100 μg mRNA/animal, intramuscular once a week for 3 weeks, versus ALC-0315 and SM-102, FIG. 9
# [4] = female, im, 300 ug, empty liposome low-dosage group (300 μg compound I-6-II/animal), D 1, female, Mean
# [5] = female, im, 300 ug, empty liposome low-dosage group (300 μg compound I-6-II/animal), D 29, female, Mean
# [6] = female, im, 1200 ug, empty liposome high-dosage group (1200 μg compound I-6-II/animal), D 1, female, Mean
# [7] = female, im, 1200 ug, empty liposome high-dosage group (1200 μg compound I-6-II/animal), D 29, female, Mean
# [8] = male, im, 300 ug, empty liposome low-dosage group (300 μg compound I-6-II/animal), D 1, male, Mean
# [9] = male, im, 300 ug, empty liposome low-dosage group (300 μg compound I-6-II/animal), D 29, male, Mean
# [10] = male, im, 1200 ug, empty liposome high-dosage group (1200 μg compound I-6-II/animal), D 1, male, Mean
# [11] = male, im, 1200 ug, empty liposome high-dosage group (1200 μg compound I-6-II/animal), D 29, male, Mean
smiles,measurement,setting,value
CCCCCCCCCOC(=O)CCCCCCCN(CCCCCCCC(=O)OC(CCCCCCCC)CCCCCCCC)[C@@H]1CCC[C@H](O)C1 [Compound (I-6-II)],fluorescence intensity in liver,[1],2.49E+05
same,accumulation,"[2]; after 4 weeks of continuous administration (3 times in total), cynomolgus monkeys",did not accumulate
same,half-life,"[2]; both sexes, cynomolgus monkeys, over the empty liposome groups, read-out: plasma half-life",4.68 to 6.45 h
same,AUC(0-t),[2]; [4],838 ng·h/mL
same,Cmax,[2]; [4],79.1 ng/mL
same,Tmax,[2]; [4],3.2 h
same,half-life,"[2]; female, im, 300 ug, empty liposome low-dosage group (300 μg compound I-6-II/animal), D 1, female, Mean, read-out: t1/2 (converted)",5.28 h
same,AUC(0-t),[2]; [5],783 ng·h/mL
same,Cmax,[2]; [5],59.3 ng/mL
same,Tmax,[2]; [5],6 h
same,half-life,"[2]; female, im, 300 ug, empty liposome low-dosage group (300 μg compound I-6-II/animal), D 29, female, Mean, read-out: t1/2 (converted)",3.58 h
same,AUC(0-t),[2]; [6],4570 ng·h/mL
same,Cmax,[2]; [6],334 ng/mL
same,Tmax,[2]; [6],5 h
same,half-life,"[2]; female, im, 1200 ug, empty liposome high-dosage group (1200 μg compound I-6-II/animal), D 1, female, Mean, read-out: t1/2 (converted)",5.07 h
same,AUC(0-t),[2]; [7],3090 ng·h/mL
same,Cmax,[2]; [7],194 ng/mL
same,Tmax,[2]; [7],8 h
same,half-life,"[2]; female, im, 1200 ug, empty liposome high-dosage group (1200 μg compound I-6-II/animal), D 29, female, Mean, read-out: t1/2 (converted)",5.29 h
same,AUC(0-t),[2]; [8],652 ng·h/mL
same,Cmax,[2]; [8],50.6 ng/mL
same,Tmax,[2]; [8],4.8 h
same,half-life,"[2]; male, im, 300 ug, empty liposome low-dosage group (300 μg compound I-6-II/animal), D 1, male, Mean, read-out: t1/2 (converted)",5.1 h
same,AUC(0-t),[2]; [9],623 ng·h/mL
same,Cmax,[2]; [9],42.4 ng/mL
same,Tmax,[2]; [9],7.2 h
same,half-life,"[2]; male, im, 300 ug, empty liposome low-dosage group (300 μg compound I-6-II/animal), D 29, male, Mean, read-out: t1/2 (converted)",5.59 h
same,AUC(0-t),[2]; [10],2240 ng·h/mL
same,Cmax,[2]; [10],198 ng/mL
same,Tmax,[2]; [10],3.2 h
same,half-life,"[2]; male, im, 1200 ug, empty liposome high-dosage group (1200 μg compound I-6-II/animal), D 1, male, Mean, read-out: t1/2 (converted)",6.07 h
same,AUC(0-t),[2]; [11],2280 ng·h/mL
same,Cmax,[2]; [11],146 ng/mL
same,Tmax,[2]; [11],8 h
same,half-life,"[2]; male, im, 1200 ug, empty liposome high-dosage group (1200 μg compound I-6-II/animal), D 29, male, Mean, read-out: t1/2 (converted)",6.45 h
same,moderate claudication,[3],significantly reduced or decreased
same,severe swelling at the injection site,[3],significantly reduced or decreased
